# In ChEMBL document CHEMBL1155003, “Halicyclamine A, a marine spongean alkaloid as a lead for anti-tuberculosis agent” (2008):
# How the values were obtained:
# Type in all cases: functional
# Settings in all cases: 336 h
# [1] = system: Mycobacterium tuberculosis; assay: Antitubercular activity against ethambutol-resistant Mycobacterium tuberculosis H37Rv ATCC 35837 after 14 days
# [2] = system: Mycobacterium tuberculosis; assay: Antitubercular activity against isoniazid-resistant Mycobacterium tuberculosis H37Rv ATCC 35822 after 14 days
# [3] = system: Mycobacterium tuberculosis; assay: Antitubercular activity against rifampicin-resistant Mycobacterium tuberculosis H37Rv ATCC 35838 after 14 days
# [4] = system: Mycobacterium tuberculosis; assay: Antitubercular activity against streptomycin-resistant Mycobacterium tuberculosis H37Rv ATCC 35820 after 14 days
structure (smiles),measurement,setting,value
C1=C2CCCC/C=C\C=C\CCN3CC[C@@H]4[C@H](CCCCCC/C=C\C=C/CCN(C2)C[C@H]14)C3 [HALICYCLAMINE A],MIC,[1],3.13 µg/mL
same,MIC,[2],3.13 µg/mL
same,MIC,[3],3.13 µg/mL
same,MIC,[4],6.25 µg/mL
